From paper PMC10648159, “Novel MAGL Inhibitors Alleviate LPS-Induced Acute Kidney Injury by Inhibiting NLRP3 Inflammatory Vesicles, Modulating Intestinal Flora, Repairing the Intestinal Barrier, and Interfering with Serum Metabolism” (Molecules, 2023)

Molecular target: T1, monoacylglycerol lipase (MAGL) (Homo sapiens, UniProt Q99685)
T1 construct: gene MGLL
T1 sequence (Q99685 1-303): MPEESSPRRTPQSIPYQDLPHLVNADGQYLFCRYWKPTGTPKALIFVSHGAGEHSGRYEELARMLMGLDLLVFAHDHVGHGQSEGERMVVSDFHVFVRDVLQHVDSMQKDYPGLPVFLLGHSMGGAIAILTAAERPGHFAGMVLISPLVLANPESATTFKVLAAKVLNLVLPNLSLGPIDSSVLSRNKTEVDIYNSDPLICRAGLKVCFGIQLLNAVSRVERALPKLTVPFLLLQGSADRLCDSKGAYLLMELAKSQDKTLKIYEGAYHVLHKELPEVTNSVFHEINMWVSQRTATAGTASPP
Assay: Cayman Monoacylglycerol Lipase Inhibitor Screening Assay Kit, absorbance at […] nm, […] min preincubation; maximum inhibition about […]
Assay type: biochemical

## CN1c2ccccc2CC1C(=O)N1CCC(C(=O)Nc2cccc(Cl)c2)CC1 (stereo not shown) [M-18C, MAGLZ-18(c)]
  IC50: 663 nM
